Assay results published in ChEMBL document CHEMBL3822392, “Design, synthesis and apoptosis inducing effect of novel (Z)-3-(3'-methoxy-4'-(2-amino-2-oxoethoxy)-benzylidene)indolin-2-ones as potential antitumour agents” (Eur J Med Chem, 2016).
Active and inactive are the calls of the source. The rule behind the calls is not given here.

Key:
[1] = Cytotoxicity against human BT549 cells after 48 hrs by MTT assay; type: functional, cell-based; conditions: BT-549, 48 h
[2] = Cytotoxicity against human RWPE1 cells after 48 hrs by MTT assay; type: cell-based; conditions: RWPE-1, 48 h
[3] = Cytotoxicity against human PC3 cells after 48 hrs by MTT assay; type: functional, cell-based; conditions: PC-3, 48 h
[4] = tested on: MDA-MB-231; test: cells; conditions: Homo sapiens, MDA-MB-231, 48 h
Description: Cytotoxicity against human MDA-MB-231 cells after 48 hrs by MTT assay

[5] = Cytotoxicity against human DU145 cells after 48 hrs by MTT assay; type: functional, cell-based; conditions: DU-145, 48 h
[6] = Cell cycle arrest in human PC3 cells assessed as accumulation at G2/M phase at 2 uM after 24 hrs by propidium iodide staining-based flow cytometry (reference value: 19.2%); type: functional; conditions: PC-3
[7] = tested on: PC-3; test: Induction of apoptosis in human PC3 cells assessed as caspase 3 activation after 24 hrs by Western blot analysis; type: functional, cell-based
[8] = tested on: PC-3; test: Induction of apoptosis in human PC3 cells assessed as early apoptotic cells at 1 uM after 24 hrs by Annexin V/FITC staining-based flow cytometric analysis (reference value: 5.1%); type: functional
[9] = Induction of apoptosis in human PC3 cells assessed as upregulation of Bax expression after 24 hrs by Western blot analysis; type: functional, cell-based; conditions: PC-3
[10] = tested on: PC-3; test: Antimigratory activity in human PC3 cells after 24 to 48 hrs by assay; type: functional, cell-based
[11] = Cytotoxicity against human PC3 cells assessed as cell viability at 4 uM after 48 hrs by trypan blue assay; type: functional; conditions: PC-3, 48 h, read-out: Activity
[12] = Cell cycle arrest in human PC3 cells assessed as accumulation at G2/M phase at 4 uM after 24 hrs by propidium iodide staining-based flow cytometry (reference value: 19.2%); type: functional; conditions: PC-3
[13] = tested on: PC-3; test: Cytotoxicity against human PC3 cells assessed as cell detachment at 1 to 4 uM after 48 hrs by phase contrast microscopic analysis relative to vehicle control; type: functional, cell-based
[14] = tested on: PC-3; test: Disruption of mitochondrial membrane potential in human PC3 cells after 24 hrs by Rhodamine123 staining-based spectrofluorimetric analysis relative to control; type: functional, cell-based
[15] = Cell cycle arrest in human PC3 cells assessed as accumulation at G2/M phase at 1 uM after 24 hrs by propidium iodide staining-based flow cytometry (reference value: 19.2%); type: functional; conditions: PC-3
[16] = tested on: PC-3; test: Induction of apoptosis in human PC3 cells assessed as early apoptotic cells at 4 uM after 24 hrs by Annexin V/FITC staining-based flow cytometric analysis (reference value: 5.1%); type: functional
[17] = tested on: PC-3; test: Induction of apoptosis in human PC3 cells assessed as live cells at 1 uM after 24 hrs by Annexin V/FITC staining-based flow cytometric analysis (reference value: 85.7%); type: functional
[18] = Cytotoxicity against human PC3 cells assessed as cell viability at 2 uM after 48 hrs by trypan blue assay; type: functional; conditions: PC-3, 48 h, read-out: Activity
[19] = tested on: PC-3; test: Induction of apoptosis in human PC3 cells assessed as chromatin condensation after 24 hrs by Hoechst […] staining-based confocal fluorescence microscopic analysis; type: functional, cell-based
[20] = tested on: PC-3; test: Induction of apoptosis in human PC3 cells assessed as necrotic cells at 1 uM after 24 hrs by Annexin V/FITC staining-based flow cytometric analysis (reference value: […]); type: functional
[21] = tested on: PC-3; test: Induction of apoptosis in human PC3 cells assessed as live cells at 4 uM after 24 hrs by Annexin V/FITC staining-based flow cytometric analysis (reference value: 85.7%); type: functional
[22] = tested on: PC-3; test: Induction of apoptosis in human PC3 cells assessed as late apoptotic cells at 4 uM after 24 hrs by Annexin V/FITC staining-based flow cytometric analysis (reference value: 4.3%); type: functional
[23] = tested on: PC-3; test: Induction of apoptosis in human PC3 cells assessed as necrotic cells at 2 uM after 24 hrs by Annexin V/FITC staining-based flow cytometric analysis (reference value: […]); type: functional
[24] = tested on: PC-3; test: Increase in intracellular Ca2+ level in human PC3 cells after 24 hrs by Fura-2/AM staining-based fluorescence microscopic analysis; type: functional, cell-based
[25] = Cell cycle arrest in human PC3 cells assessed as accumulation at G0/G1 phase at 1 uM after 24 hrs by propidium iodide staining-based flow cytometry (reference value: 71.7%); type: functional; conditions: PC-3
[26] = Antimigratory activity in human PC3 cells at 2 uM after 24 hrs by wound healing assay (reference value: 43.4%); type: functional, PC-3
[27] = Cell cycle arrest in human PC3 cells assessed as accumulation at S phase at 1 uM after 24 hrs by propidium iodide staining-based flow cytometry (reference value: 9.3%); type: functional; conditions: PC-3
[28] = Disruption of mitochondrial membrane potential in human PC3 cells at 1 to 4 uM after 24 hrs by Rhodamine123 staining-based spectrofluorimetric analysis relative to control; type: functional, PC-3
[29] = tested on: PC-3; test: Antimigratory activity in human PC3 cells assessed as disruption of F-actin formation around nucleus at 1 to 4 uM after 12 hrs by rhodamine phalloidin/Hoechst […] staining-based confocal microscopic analysis; type: functional, cell-based
[30] = Cell cycle arrest in human PC3 cells assessed as accumulation at G0/G1 phase at 4 uM after 24 hrs by propidium iodide staining-based flow cytometry (reference value: 71.7%); type: functional; conditions: PC-3
[31] = Cell cycle arrest in human PC3 cells assessed as accumulation at S phase at 2 uM after 24 hrs by propidium iodide staining-based flow cytometry (reference value: 9.3%); type: functional; conditions: PC-3
[32] = Antimigratory activity in human PC3 cells at 1 uM after 24 hrs by wound healing assay (reference value: 43.4%); type: functional, PC-3
[33] = tested on: PC-3; test: Induction of apoptosis in human PC3 cells assessed as late apoptotic cells at 2 uM after 24 hrs by Annexin V/FITC staining-based flow cytometric analysis (reference value: 4.3%); type: functional
[34] = Antimigratory activity in human PC3 cells at 4 uM after 24 hrs by wound healing assay (reference value: 43.4%); type: functional, PC-3
[35] = tested on: PC-3; test: Induction of apoptosis in human PC3 cells assessed as nuclear fragmentation after 24 hrs by Hoechst […] staining-based confocal fluorescence microscopic analysis; type: functional, cell-based
[36] = tested on: PC-3; test: Induction of apoptosis in human PC3 cells assessed as early apoptotic cells at 2 uM after 24 hrs by Annexin V/FITC staining-based flow cytometric analysis (reference value: 5.1%); type: functional
[37] = Cell cycle arrest in human PC3 cells assessed as accumulation at S phase at 4 uM after 24 hrs by propidium iodide staining-based flow cytometry (reference value: 9.3%); type: functional; conditions: PC-3
[38] = tested on: PC-3; test: Induction of apoptosis in human PC3 cells assessed as late apoptotic cells at 1 uM after 24 hrs by Annexin V/FITC staining-based flow cytometric analysis (reference value: 4.3%); type: functional
[39] = tested on: PC-3; test: Antimigratory activity in human PC3 cells at 1 to 2 uM after 48 hrs by wound healing assay; type: functional, cell-based
[40] = tested on: PC-3; test: Induction of apoptosis in human PC3 cells assessed as downregulation of Bcl2 expression after 24 hrs by Western blot analysis; type: functional, cell-based
[41] = tested on: PC-3; test: Induction of apoptosis in human PC3 cells assessed as live cells at 2 uM after 24 hrs by Annexin V/FITC staining-based flow cytometric analysis (reference value: 85.7%); type: functional
[42] = Cell cycle arrest in human PC3 cells assessed as accumulation at G0/G1 phase at 2 uM after 24 hrs by propidium iodide staining-based flow cytometry (reference value: 71.7%); type: functional; conditions: PC-3
[43] = tested on: PC-3; test: Induction of apoptosis in human PC3 cells assessed as necrotic cells at 4 uM after 24 hrs by Annexin V/FITC staining-based flow cytometric analysis (reference value: […]); type: functional
[44] = tested on: PC-3; test: Induction of apoptosis in human PC3 cells after 24 hrs by Annexin V/FITC staining-based flow cytometric analysis; type: functional, cell-based
[45] = Cell cycle arrest in human PC3 cells assessed as accumulation at G0/G1 phase after 24 hrs by propidium iodide staining-based flow cytometry; type: functional; conditions: PC-3
[46] = tested on: PC-3; test: Cytotoxicity against human PC3 cells assessed as cell shrinkage at 1 to 4 uM after 48 hrs by phase contrast microscopic analysis relative to vehicle control; type: functional, cell-based

CCN(CC)CCNC(=O)c1c(C)[nH]c(/C=C2\C(=O)Nc3ccc(F)cc32)c1C [SUNITINIB]
IC50 [1]: 15.5 µM
IC50 [2]: 23 µM
IC50 [3]: 19.6 µM
IC50 [4]: 7.4 µM
IC50 [5]: 16.4 µM

COc1cc(/C=C2\C(=O)Nc3ccccc32)ccc1OCC(=O)N1CC(C)OC(C)C1 (centres undefined)
IC50 [1]: > 20 µM
IC50 [3]: > 20 µM
IC50 [4]: > 20 µM
IC50 [5]: > 20 µM

COc1cc(/C=C2\C(=O)Nc3ccccc32)ccc1OCC(=O)N1CCCC1
IC50 [1]: > 20 µM
IC50 [3]: > 20 µM
IC50 [4]: > 20 µM
IC50 [5]: > 20 µM

COc1cc(/C=C2\C(=O)Nc3ccccc32)ccc1OCC(=O)N1CCc2ccccc21
Activity [6]: 49.8%
Activity [7]: Dose-dependent effect
Activity [8]: 13.6%
Activity [9]: Dose-dependent effect
Activity [10]: Dose-dependent effect
viability at 4 µM [11]: 45%
IC50 [1]: 7.17 µM
Activity [12]: 55.7%
Activity [13]: Active
Activity [14]: Dose-dependent effect
Activity [15]: 41.6%
Activity [16]: 15.8%
Activity [17]: 77.7%
viability at 2 µM [18]: 53%
Activity [19]: Dose-dependent effect
IC50 [2]: > 100 µM
Activity [20]: 0.4%
Activity [21]: 57.4%
Activity [22]: 22.4%
Activity [23]: 1.3%
IC50 [3]: 1.89 µM
Activity [24]: Dose-dependent effect
Activity [25]: 39.1%
Activity [26]: 29.4%
Activity [27]: 18.5%
IC50 [4]: 6.35 µM
Activity [28]: 19%
Activity [29]: Active
Activity [30]: 19.4%
Activity [31]: 27.6%
Activity [32]: 37.3%
Activity [33]: 10.2%
Activity [34]: 7.3%
Activity [35]: Dose-dependent effect
IC50 [5]: 1.94 µM
Activity [36]: 17.6%
Activity [37]: 24.2%
Activity [38]: 8.3%
Activity [39]: Active
Activity [40]: Dose-dependent effect
Activity [41]: 70.9%
Activity [42]: 20.8%
Activity [43]: 4.4%
Activity [44]: Dose-dependent effect
Activity [45]: Dose-dependent effect
Activity [46]: Active

COc1cc(/C=C2\C(=O)Nc3ccccc32)ccc1OCC(=O)N1CCCCC1
IC50 [1]: > 20 µM
IC50 [2]: 78.1 µM
IC50 [3]: 6.97 µM
IC50 [4]: 19.3 µM
IC50 [5]: 6.63 µM

COc1cc(/C=C2\C(=O)Nc3ccccc32)ccc1OCC(=O)N1CCOCC1
IC50 [1]: 8.87 µM
IC50 [2]: 81.8 µM
IC50 [3]: 5.97 µM
IC50 [4]: 9.78 µM
IC50 [5]: 5.75 µM
